# Literature values, collected in patent US11826320B2, “Treating COVID 19 by using a mixture of cannabinoids in micellized form to lower levels of pro-inflammatory cytokines and reduce risk of cytokine storm” (WSMEF, LLC, priority 2020, dated 2023).
# How the values were obtained:
# cannabinoid CB2 receptor = cannabinoid CB2 receptor (Homo sapiens, UniProt P34972)
# [1] = biological target: T1, serotonin 5-HT1A receptor (Homo sapiens, UniProt P08908)
# T1 sequence (P08908 1-422): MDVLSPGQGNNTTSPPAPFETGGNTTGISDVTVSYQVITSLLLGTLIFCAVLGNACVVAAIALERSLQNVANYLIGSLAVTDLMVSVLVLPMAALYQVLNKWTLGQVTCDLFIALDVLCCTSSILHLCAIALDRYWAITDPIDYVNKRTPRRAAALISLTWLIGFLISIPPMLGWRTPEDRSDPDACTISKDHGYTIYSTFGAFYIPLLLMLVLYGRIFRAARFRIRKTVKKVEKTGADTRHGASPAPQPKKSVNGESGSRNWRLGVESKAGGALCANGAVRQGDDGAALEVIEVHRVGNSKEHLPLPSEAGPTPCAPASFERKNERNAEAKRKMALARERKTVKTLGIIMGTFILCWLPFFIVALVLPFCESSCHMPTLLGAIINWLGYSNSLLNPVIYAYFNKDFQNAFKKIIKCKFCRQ
# μ-opioid receptor = μ-opioid receptor (Homo sapiens, UniProt P35372)
# Chain of μ-opioid receptor (P35372 whole entry): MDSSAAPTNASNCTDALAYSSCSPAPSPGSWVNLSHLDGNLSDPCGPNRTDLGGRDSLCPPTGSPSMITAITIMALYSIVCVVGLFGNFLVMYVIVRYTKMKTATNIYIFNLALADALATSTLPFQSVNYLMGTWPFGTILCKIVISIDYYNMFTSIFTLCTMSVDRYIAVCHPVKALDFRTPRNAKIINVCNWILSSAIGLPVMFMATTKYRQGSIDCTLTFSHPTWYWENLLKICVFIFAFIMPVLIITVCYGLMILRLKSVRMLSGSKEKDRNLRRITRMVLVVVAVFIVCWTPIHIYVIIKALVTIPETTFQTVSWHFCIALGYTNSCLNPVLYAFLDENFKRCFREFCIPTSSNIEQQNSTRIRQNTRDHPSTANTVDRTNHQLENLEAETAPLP
# δ-opioid receptor = δ-opioid receptor (Homo sapiens, UniProt P41143)
# Chain of δ-opioid receptor (P41143 whole entry): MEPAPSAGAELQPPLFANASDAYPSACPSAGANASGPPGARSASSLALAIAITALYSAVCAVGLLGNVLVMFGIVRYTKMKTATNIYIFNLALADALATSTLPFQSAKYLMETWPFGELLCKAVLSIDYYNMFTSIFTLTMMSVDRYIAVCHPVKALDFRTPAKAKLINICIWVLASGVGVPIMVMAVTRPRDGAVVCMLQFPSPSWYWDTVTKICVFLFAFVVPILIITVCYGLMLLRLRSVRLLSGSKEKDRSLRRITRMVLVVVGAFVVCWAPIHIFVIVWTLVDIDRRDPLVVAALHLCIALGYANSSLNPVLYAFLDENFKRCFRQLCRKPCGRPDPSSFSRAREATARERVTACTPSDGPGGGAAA
# SARS-CoV-2 = conditions: purified CBD
# Chain of cannabinoid CB2 receptor (P34972 whole entry): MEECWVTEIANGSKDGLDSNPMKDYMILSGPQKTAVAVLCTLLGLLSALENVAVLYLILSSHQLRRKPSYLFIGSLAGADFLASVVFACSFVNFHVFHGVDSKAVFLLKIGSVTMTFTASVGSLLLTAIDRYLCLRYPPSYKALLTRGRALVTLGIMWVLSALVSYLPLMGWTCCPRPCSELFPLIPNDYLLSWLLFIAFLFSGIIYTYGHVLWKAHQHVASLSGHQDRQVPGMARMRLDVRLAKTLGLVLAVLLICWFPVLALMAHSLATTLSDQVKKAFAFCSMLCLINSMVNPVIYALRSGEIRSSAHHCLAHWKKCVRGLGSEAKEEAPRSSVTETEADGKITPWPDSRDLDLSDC
smiles,measurement,setting,value
"C=C(C)[C@@H]1CCC(C)=C[C@H]1c1c(O)cc(CCCCC)cc1O [CBD, cannabidiol]",affinity for CB2 receptor,cannabinoid CB2 receptor,low affinity
same,action at 5-HT1A receptor,[1],partial agonist
same,action at μ-opioid receptor,μ-opioid receptor,allosteric modulator
same,action at δ-opioid receptor,δ-opioid receptor,allosteric modulator
same,replication of SARS-CoV-2,SARS-CoV-2,inhibits replication
